{"source": "paper PMC10929621", "about": "“An Engineered Biarylitide Cross-Linking P450 from RiPP Biosynthesis Generates Alternative Cyclic Peptides” (Organic Letters, 2024)", "system": "Blt-M1 (P450Blt A231V-H234L)", "assay": "Deuterium loss on cyclization by Blt-M1", "type": "biochemical, Micromonospora sp. MW-13", "conditions": "deuterium at C2 of His-3, HRMS", "method": "Finally, we sought to clarify the nature of the cross-link within 5 formed by Blt-M1 as no equivalent cross-linked tripeptide natural product has been identified. Scaled enzymatic cyclization of Nle-2 (N-terminal Met residue was replaced with norleucine (Nle) to avoid sulfoxidation due to the release of reactive oxygen intermediates during catalysis) and purification of Nle-5 were then performed. […] We turned to the use of peptide deuteration to resolve this cross-link, which based on WT biarylitide reactivity could be either C–C or C–N. This required synthesis and turnover of a deuterated version of Nle-2 with deuterium at C2 of the His-3 residue (Nle-2^3d).[17] […]\nThe UV-visible spectra of the P450 enzymes were obtained using a Jasco V-750 spectrophotometer as has been previously reported.1 The spectra were measured until it reached a stable peak. CO difference spectra were obtained using a Jasco V-750 spectrophotometer at 30 °C as has been previously described.1 The UV-vis spectra were measured between 390–600 nm every 5 mins until the spectra was stable.1, 4 Substrate interaction with the P450s was measured using UV-visible absorbance spectroscopy carried out on a Jasco V-750 spectrophotometer according to previously reported protocol.1 Amplitudes of the different spectra were extrapolated (ΔA = Amax - Amin) and plotted against the substrate concentration. […]", "data": [{"substance": "NleRHLY (sidechain bridge or staple) [Nle-5, cross-linked peptide from enzymatic cyclization of Nle-2 by Blt-M1]", "values": [{"measurement": "loss of deuterium upon cyclization", "value": "loss of deuterium"}]}]}
